Measurements published in publication PMC7366380, “Discovery of a Potent and Selective Covalent Inhibitor and Activity-Based Probe for the Deubiquitylating Enzyme UCHL1, with Antifibrotic Activity” (Journal of the American Chemical Society, 2020).

How the values were obtained:
USP4 = target: T1, USP4 (Homo sapiens, UniProt Q13107); assay: Biochemical DUB selectivity profiling assay: USP4; details: Ub-Lys-TAMRA 50 nM, buffer A; read-out: Biochemical IC50 range, USP4
T1 sequence (Q13107 1-963): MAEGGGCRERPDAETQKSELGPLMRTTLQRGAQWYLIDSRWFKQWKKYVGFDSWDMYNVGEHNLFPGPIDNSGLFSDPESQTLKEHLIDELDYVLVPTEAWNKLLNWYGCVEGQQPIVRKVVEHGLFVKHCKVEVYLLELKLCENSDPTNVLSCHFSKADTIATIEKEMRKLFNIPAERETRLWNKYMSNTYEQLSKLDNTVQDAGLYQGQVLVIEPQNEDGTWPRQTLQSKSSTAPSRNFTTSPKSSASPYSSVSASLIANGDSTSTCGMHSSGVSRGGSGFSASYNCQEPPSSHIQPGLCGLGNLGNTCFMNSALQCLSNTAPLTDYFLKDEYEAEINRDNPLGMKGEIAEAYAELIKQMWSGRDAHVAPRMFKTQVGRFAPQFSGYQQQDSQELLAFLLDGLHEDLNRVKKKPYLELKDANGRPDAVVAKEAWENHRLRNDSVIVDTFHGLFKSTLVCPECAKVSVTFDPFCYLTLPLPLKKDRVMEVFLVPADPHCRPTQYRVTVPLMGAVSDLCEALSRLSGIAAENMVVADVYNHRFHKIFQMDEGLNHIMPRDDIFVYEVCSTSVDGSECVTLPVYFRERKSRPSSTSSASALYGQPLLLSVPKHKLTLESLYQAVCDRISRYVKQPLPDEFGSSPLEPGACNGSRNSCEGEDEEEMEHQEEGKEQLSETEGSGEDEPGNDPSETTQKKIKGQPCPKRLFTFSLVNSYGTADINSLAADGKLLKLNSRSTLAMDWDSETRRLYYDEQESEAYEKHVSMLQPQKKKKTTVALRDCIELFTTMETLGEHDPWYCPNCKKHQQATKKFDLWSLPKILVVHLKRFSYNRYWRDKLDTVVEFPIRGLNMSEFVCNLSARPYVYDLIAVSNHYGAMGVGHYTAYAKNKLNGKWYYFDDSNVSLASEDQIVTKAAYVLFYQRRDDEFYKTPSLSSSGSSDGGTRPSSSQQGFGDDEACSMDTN
Protocol: (§1) DUB Assay Substrate Substrate
(§2) Buffer Concentration (nM) […]
(§3) Sepharose® 4B resin (GE Healthcare).
(§4) 10 kDa molecular weight cut-off (MWCO)).
(§5) Fractions containing protein
(§6) Protein concentration was […]
(§7) reaction volume of 21 μL. […]
(§8) compound (final concentration 5 nM).
(§9) IC50 values were determined
(§10) Biochemical DUB selectivity profiling assays […]
(§11) in 40 µL total reaction volume.

USP28 = target: T2, USP28 (Homo sapiens, UniProt Q96RU2); assay: Biochemical DUB selectivity profiling assay: USP28; details: Ub-Lys-TAMRA 50 nM, buffer B; read-out: Biochemical IC50 range, USP28
T2 sequence (Q96RU2 1-1077): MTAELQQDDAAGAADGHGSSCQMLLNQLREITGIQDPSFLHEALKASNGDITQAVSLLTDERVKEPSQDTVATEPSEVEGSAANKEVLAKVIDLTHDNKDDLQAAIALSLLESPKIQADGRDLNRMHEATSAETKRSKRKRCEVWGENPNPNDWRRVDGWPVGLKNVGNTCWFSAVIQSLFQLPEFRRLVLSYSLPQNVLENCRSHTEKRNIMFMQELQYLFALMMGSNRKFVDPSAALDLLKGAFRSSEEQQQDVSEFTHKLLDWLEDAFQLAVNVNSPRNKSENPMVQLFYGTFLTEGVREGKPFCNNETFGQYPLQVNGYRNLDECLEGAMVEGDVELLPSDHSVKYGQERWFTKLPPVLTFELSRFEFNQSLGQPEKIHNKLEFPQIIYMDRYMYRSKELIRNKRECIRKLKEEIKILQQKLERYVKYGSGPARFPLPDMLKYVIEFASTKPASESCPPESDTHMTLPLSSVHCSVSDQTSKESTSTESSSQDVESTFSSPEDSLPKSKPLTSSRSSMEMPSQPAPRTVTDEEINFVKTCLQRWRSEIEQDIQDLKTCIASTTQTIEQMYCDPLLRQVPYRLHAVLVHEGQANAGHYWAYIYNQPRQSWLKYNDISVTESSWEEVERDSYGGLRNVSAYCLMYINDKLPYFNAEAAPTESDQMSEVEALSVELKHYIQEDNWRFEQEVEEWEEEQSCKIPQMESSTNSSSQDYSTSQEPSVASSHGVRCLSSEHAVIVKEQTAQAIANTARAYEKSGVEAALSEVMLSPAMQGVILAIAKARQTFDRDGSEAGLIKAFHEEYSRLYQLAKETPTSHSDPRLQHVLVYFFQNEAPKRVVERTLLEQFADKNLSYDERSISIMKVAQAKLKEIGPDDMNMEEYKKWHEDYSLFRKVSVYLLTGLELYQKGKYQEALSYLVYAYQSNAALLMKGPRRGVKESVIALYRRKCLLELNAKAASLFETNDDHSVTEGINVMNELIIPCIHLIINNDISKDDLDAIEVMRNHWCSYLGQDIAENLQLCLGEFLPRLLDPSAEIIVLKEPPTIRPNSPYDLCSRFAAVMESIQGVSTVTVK
Protocol: as §1, §2, §3, §4, §5, §6, §7, §8, §9, §10, §11

USP10 = USP10 (Homo sapiens, UniProt Q14694); assay: biochemical
USP30 = target: T3, USP30 (Homo sapiens, UniProt Q70CQ3); assay: biochemical
T3 sequence (Q70CQ3 1-517): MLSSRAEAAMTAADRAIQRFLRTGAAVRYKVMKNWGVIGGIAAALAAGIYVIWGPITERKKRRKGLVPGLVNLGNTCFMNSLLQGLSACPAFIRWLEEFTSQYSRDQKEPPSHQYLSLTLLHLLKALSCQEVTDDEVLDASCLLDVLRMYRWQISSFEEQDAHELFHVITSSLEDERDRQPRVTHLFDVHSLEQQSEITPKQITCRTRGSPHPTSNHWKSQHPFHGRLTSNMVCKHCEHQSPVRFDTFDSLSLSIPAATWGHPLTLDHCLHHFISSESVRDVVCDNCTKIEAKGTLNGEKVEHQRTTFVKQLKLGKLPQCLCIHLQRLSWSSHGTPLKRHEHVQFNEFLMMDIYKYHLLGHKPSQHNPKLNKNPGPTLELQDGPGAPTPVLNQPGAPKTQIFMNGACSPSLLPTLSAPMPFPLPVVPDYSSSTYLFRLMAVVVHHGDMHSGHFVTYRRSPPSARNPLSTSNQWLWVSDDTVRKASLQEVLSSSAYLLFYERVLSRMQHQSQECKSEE

[1] = test system: primary human bronchial fibroblasts from IPF patients (TGF-β1-triggered αSMA); assay: Fibroblast-to-myofibroblast transition (FMT) assay, αSMA by high content analysis; details: for IC50: Homo sapiens, Fibroblast, 72 h, read-out: αSMA inhibition IC50 (95% CI); for αSMA inhibition / transdifferentiation (in words): IPF donor fibroblasts, TGF-β1, 3 days, high content imaging

Sequence of USP10 (Q14694 whole entry): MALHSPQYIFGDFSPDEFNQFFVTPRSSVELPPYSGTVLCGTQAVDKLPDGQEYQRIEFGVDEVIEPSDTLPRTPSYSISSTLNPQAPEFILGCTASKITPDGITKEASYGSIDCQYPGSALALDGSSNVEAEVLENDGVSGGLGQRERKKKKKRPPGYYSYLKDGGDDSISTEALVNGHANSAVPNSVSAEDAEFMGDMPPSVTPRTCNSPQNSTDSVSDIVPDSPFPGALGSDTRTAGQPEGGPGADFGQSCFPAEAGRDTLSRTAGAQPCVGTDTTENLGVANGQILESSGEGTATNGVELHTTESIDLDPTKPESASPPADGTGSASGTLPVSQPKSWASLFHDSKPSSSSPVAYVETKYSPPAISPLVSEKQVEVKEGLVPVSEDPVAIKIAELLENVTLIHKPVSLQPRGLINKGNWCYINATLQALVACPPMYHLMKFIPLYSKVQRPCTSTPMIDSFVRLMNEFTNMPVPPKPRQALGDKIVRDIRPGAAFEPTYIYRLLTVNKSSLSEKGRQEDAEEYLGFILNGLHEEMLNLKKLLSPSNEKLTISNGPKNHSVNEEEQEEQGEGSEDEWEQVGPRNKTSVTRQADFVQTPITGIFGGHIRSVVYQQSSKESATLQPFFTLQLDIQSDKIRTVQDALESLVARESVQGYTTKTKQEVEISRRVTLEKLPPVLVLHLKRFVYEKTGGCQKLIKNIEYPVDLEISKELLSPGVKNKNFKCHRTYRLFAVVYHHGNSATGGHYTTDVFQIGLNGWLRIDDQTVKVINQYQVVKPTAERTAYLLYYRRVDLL

| IC50 (USP4) [µM] | IC50 (USP28) [µM] | IC50 (USP10) [µM] | IC50 (USP30) [µM] | Compound | IC50 [1] [µM] | αSMA inhibition / transdifferentiation (in words) [1] |
| --- | --- | --- | --- | --- | --- | --- |
| > 10 | – | > 10 | > 10 | N#CN1CCC[C@@H]1C(=O)N1CCc2c(-c3c[nH]c4ncccc34)cccc21 [Compound 3] | 2 | not and minimal αSMA inhibition |
| > 10 | > 10 | > 10 | 1 to 10 | N#CN1CCC[C@H]1C(=O)N1CCc2c(-c3c[nH]c4ncccc34)cccc21 [Compound 1] | – | inhibit transdifferentiation |
| > 10 | > 10 | – | – | C#Cc1cnc2[nH]cc(-c3cccc4c3CCN4C(=O)[C@@H]3CCCN3C#N)c2c1 [Compound 2] | – | inhibit transdifferentiation |

| Compound | IC50 (USP4) [µM] | IC50 (USP28) [µM] | IC50 (USP10) [µM] | IC50 (USP30) [µM] | IC50 [1] [µM] | αSMA inhibition / transdifferentiation (in words) [1] |
| --- | --- | --- | --- | --- | --- | --- |
| CC(=O)O/N=C1\C(=O)N(Cc2cc(Cl)ccc2Cl)c2ccc(Cl)cc21 [LDN-57444, reference compound] | > 10 | > 10 | > 10 | > 10 | 3.7 | not and weak αSMA inhibition |
